Assay results published in patent publication US8410310B2, “Trypsin-like serine protease inhibitors, and their preparation and use” (The Medicines Company (Leipzig) GmbH, priority 2006, dated 2013).
Like-named read-outs stand apart in the source and are kept apart here.

Assays:
Assay type in all cases: biochemical
[1] = target: Xa (Homo sapiens, UniProt P00742); assay: Determination of inhibition constants for Xa
Protocol: (§1) The inhibitory effect for the individual enzymes was determined in analogy to a previously disclosed method (Stürzebecher et al., 1997).
(§2) For zero order kinetics, the reaction was stopped after 20 min by adding 25 μl of acetic acid (50% v/v), and the absorption at 405 nm was determined using a Microplate Reader (Multiscan Ascent, from Thermo). In the case of pseudo-first order kinetics, the reaction rates in the equilibrium state were ascertained by recording the reaction kinetics. The Ki values were ascertained either in accordance with Dixon (1953) by linear regression using a computer program or by parameter fitting in accordance with the rate equation for competitive inhibition. The Ki values are the average of at least two determinations.

[2] = target: Thrombin (Homo sapiens, UniProt P00734); assay: Determination of inhibition constants for thrombin
Protocol: as §1, §2

[3] = target: plasmin (Homo sapiens, UniProt P00747); assay: Determination of inhibition constants for plasmin; set-up: purchased Calbiochem
Sequence of plasmin (P00747 581-810 limits assumed): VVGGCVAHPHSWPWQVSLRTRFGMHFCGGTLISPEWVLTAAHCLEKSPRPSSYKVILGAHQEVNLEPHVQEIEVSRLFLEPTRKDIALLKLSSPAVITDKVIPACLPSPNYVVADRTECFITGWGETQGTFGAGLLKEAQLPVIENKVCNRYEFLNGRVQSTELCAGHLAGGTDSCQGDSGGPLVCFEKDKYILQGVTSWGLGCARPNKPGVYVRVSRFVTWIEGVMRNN
Sequence of plasmin (P00747 97-580 partner limits assumed): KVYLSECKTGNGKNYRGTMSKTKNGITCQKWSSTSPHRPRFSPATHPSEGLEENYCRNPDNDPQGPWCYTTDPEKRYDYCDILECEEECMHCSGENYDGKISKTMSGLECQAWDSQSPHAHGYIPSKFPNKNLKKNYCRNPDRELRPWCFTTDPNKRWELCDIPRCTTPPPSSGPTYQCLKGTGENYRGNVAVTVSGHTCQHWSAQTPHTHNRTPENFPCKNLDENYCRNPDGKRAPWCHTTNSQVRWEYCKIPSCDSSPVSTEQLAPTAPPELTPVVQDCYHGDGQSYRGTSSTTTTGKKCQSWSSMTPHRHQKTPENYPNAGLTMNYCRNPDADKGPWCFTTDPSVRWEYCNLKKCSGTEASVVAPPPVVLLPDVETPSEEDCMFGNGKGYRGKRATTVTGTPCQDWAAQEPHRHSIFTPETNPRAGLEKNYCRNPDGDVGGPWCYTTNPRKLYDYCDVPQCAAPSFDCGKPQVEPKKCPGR
Protocol: as §1, §2

[4] = target: plasma kallikrein (Homo sapiens, UniProt P03952); assay: Determination of inhibition constants for PK; set-up: purchased Enzyme Research Lab. / Enzyme Research Laboratories
Sequence of plasma kallikrein (P03952 391-638 limits assumed): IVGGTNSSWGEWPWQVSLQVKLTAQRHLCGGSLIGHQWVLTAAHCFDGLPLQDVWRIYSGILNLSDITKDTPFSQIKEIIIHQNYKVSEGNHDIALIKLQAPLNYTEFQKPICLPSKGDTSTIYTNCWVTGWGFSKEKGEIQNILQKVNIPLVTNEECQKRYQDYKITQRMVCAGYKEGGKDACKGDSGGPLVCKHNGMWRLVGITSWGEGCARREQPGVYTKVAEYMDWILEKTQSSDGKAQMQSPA
Sequence of plasma kallikrein (P03952 20-390 partner limits assumed): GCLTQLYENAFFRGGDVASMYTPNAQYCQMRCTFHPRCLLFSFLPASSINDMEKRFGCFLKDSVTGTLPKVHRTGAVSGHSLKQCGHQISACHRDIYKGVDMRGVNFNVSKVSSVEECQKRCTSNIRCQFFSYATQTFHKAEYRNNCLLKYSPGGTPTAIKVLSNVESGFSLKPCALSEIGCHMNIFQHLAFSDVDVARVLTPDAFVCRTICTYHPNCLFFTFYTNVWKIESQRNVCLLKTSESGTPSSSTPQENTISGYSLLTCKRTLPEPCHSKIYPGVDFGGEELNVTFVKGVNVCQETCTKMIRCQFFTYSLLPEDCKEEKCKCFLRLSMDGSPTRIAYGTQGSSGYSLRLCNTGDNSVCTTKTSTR
Protocol: as §1, §2

[5] = 25° C., substrate Chromozym PL, pH 8.0, read-out: Plasmin [Ki]
[6] = 25° C., substrate S2302, pH 8.0, read-out: PK [Ki]
[7] = summary of results, read-out: Ki value of the plasma kallikrein inhibition
[8] = summary of results, read-out: Ki value of the plasmin inhibition

Sequence of Xa (P00742 235-488 limits assumed): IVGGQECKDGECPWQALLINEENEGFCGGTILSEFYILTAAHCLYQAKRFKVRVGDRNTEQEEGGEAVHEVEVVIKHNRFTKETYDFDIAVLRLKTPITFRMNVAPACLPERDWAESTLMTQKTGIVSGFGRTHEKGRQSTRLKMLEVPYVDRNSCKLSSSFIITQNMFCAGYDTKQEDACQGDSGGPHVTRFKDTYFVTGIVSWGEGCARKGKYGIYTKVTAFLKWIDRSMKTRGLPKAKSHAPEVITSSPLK
Sequence of Xa (P00742 41-179 limits assumed): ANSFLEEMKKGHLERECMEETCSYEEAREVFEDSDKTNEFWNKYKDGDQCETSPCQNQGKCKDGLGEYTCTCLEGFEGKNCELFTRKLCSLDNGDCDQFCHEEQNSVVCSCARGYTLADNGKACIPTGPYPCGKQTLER

Molecule	Ki [1] [µM]	Ki [2] [µM]	Ki [3, 5] [µM]	Ki [4, 6] [µM]	Ki [4, 7] [µM]	Ki [3, 8] [µM]
N=C(N)c1ccc(CNC(=O)[C@H](Cc2cccc(CN)c2)NC(=O)[C@@H](CCCc2ccc(OC(F)(F)F)cc2)NS(=O)(=O)Cc2ccccc2)cc1 [compound 12]	< 0.1	< 1	< 0.01	< 0.01	–	–
N=C(N)c1ccc(CNC(=O)[C@H](Cc2ccc(C(=N)N)cc2)NC(=O)[C@@H](CO)NS(=O)(=O)Cc2ccccc2)cc1 [compound 76]	> 1	> 1	< 0.1	< 0.1	–	–
N=C(N)c1ccc(CNC(=O)[C@H](CCc2ccncc2)NC(=O)[C@@H](CC2CCCCC2)NS(=O)(=O)Cc2ccccc2)cc1 [compound 43]	< 0.1	< 0.01	< 0.01	< 0.1	–	–
Bzls-d-Gly(3-O-Phpr)-Phe(3-Ame)-4-Amba×2 TFA [compound 6]	< 0.1	< 1	< 0.01	< 0.01	–	–
N=C(N)c1ccc(CNC(=O)[C@H](Cc2cccc(CN)c2)NC(=O)[C@@H](CO)NS(=O)(=O)Cc2ccccc2)cc1 [compound 72]	–	–	–	< 0.1	–	–
CC(C)(C)OC[C@@H](NS(=O)(=O)Cc1ccc(C(=O)O)cc1)C(=O)N[C@@H](Cc1cccc(CN)c1)C(=O)NCc1ccc(C(=N)N)cc1 [compound 65]	< 1	> 1	< 0.1	< 0.01	< 0.001	–
CC(C)(C)OC(=O)NCCCC[C@@H](NS(=O)(=O)Cc1ccc(C(=O)O)cc1)C(=O)N[C@@H](Cc1cccc(CN)c1)C(=O)NCc1ccc(C(=N)N)cc1 [compound 58]	< 1	> 1	< 0.1	< 0.01	–	–
N=C(N)c1ccc(CNC(=O)[C@H](CCc2ccncc2)NC(=O)[C@H](NS(=O)(=O)Cc2ccccc2)C2Cc3ccccc3C2)cc1 [compound 46]	< 1	< 0.1	< 0.01	< 0.01	–	< 0.005
N=C(N)c1ccc(CNC(=O)[C@H](CCc2cccc(CN)c2)NC(=O)[C@@H](CO)NS(=O)(=O)Cc2ccccc2)cc1 [compound 74]	> 1	> 1	< 0.1	< 0.1	–	–
CC(C)(C)OC(=O)NCCCC[C@@H](NS(=O)(=O)Cc1ccccc1)C(=O)N[C@@H](CCc1ccncc1)C(=O)NCc1ccc(C(=N)N)cc1 [compound 62]	< 1	< 1	< 0.01	< 0.01	–	–
COC(=O)c1ccc(CS(=O)(=O)N[C@H](COC(C)(C)C)C(=O)N[C@@H](Cc2cccc(CN)c2)C(=O)NCc2ccc(C(=N)N)cc2)cc1 [compound 64]	> 1	> 1	< 0.01	< 0.01	< 0.001	–
N=C(N)c1ccc(CNC(=O)[C@H](Cc2cccc(CN)c2)NC(=O)[C@H](NS(=O)(=O)Cc2ccccc2)C(c2ccccc2)c2ccccc2)cc1 [compound 22]	< 0.1	< 0.01	< 0.01	< 0.01	–	–
CC(C)(C)OC[C@@H](NS(=O)(=O)Cc1ccccc1)C(=O)N[C@@H](Cc1cccc(CN)c1)C(=O)NCc1ccc(C(=N)N)cc1 [compound 71]	> 1	–	–	–	–	–
CC(C)(C)OC[C@@H](NS(=O)(=O)Cc1ccccc1)C(=O)N[C@@H](CCc1cccc(CN)c1)C(=O)NCc1ccc(C(=N)N)cc1 [compound 73]	< 1	< 0.1	< 0.1	< 0.1	–	–
N=C(N)c1ccc(CNC(=O)[C@H](Cc2cccc(CN)c2)NC(=O)[C@@H](Cc2ccc(-c3ccccc3)cc2)NS(=O)(=O)Cc2ccccc2)cc1 [compound 14]	< 0.1	< 1	< 0.01	< 0.01	–	< 0.005
N=C(N)c1ccc(CNC(=O)[C@H](Cc2cccc(CN)c2)NC(=O)[C@@H](Cc2ccc3ccccc3c2)NS(=O)(=O)Cc2ccccc2)cc1 [compound 17]	< 0.1	< 1	< 0.01	< 0.01	–	–
CC(C)(C)OC[C@@H](NS(=O)(=O)Cc1ccccc1)C(=O)N[C@@H](Cc1cccc(CN)c1)C(=O)NCc1ccc(C(=N)N)cc1 [compound 63]	< 1	< 1	< 0.01	< 0.01	–	–
N=C(N)c1ccc(CNC(=O)[C@H](Cc2cccc(CN)c2)NC(=O)[C@@H](Cc2ccc3ccccc3c2)NS(=O)(=O)Cc2cccc(C(=O)O)c2)cc1 [compound 18]	< 0.1	> 1	< 0.01	< 0.01	–	–
N=C(N)c1ccc(CNC(=O)[C@H](Cc2cccc(CN)c2)NC(=O)[C@@H](CN)NS(=O)(=O)Cc2ccccc2)cc1 [compound 61]	> 1	> 1	< 0.1	< 0.01	–	–
N=C(N)c1ccc(CNC(=O)[C@H](CCc2ccc(CN)cc2)NC(=O)[C@@H](CC2CCCCC2)NS(=O)(=O)Cc2ccccc2)cc1 [compound 37]	< 0.1	< 0.1	< 0.1	< 0.1	–	–

The next lines start with the values.

Ki [1] [µM]	Ki [2] [µM]	Ki [3, 5] [µM]	Ki [4, 6] [µM]	Ki [4, 7] [µM]	Ki [3, 8] [µM]	Molecule
< 0.01	< 0.1	< 0.01	< 0.01	–	–	N=C(N)c1ccc(CNC(=O)[C@H](Cc2cccc(CN)c2)NC(=O)[C@@H](CCCc2ccc(Cl)cc2)NS(=O)(=O)Cc2ccccc2)cc1 [compound 7]
< 0.1	< 1	< 0.01	< 0.01	–	–	COc1ccc(CCC[C@@H](NS(=O)(=O)Cc2ccccc2)C(=O)N[C@@H](Cc2cccc(CN)c2)C(=O)NCc2ccc(C(=N)N)cc2)cc1 [compound 10]
> 1	> 1	< 0.1	< 0.01	–	–	N=C(N)Nc1ccc(CNC(=O)[C@H](Cc2cccc(CN)c2)NC(=O)[C@@H](CCCc2ccccc2)NS(=O)(=O)Cc2cccc(C(=O)O)c2)cc1 [compound 4, 3-HOOC-Bzls-d-Ppg-Phe(3-Ame)-4-guanidinobenzylamide×2 acetate]
< 0.01	< 0.1	< 0.01	< 0.01	–	–	N=C(N)c1ccc(CNC(=O)[C@H](CCc2ccccc2)NC(=O)[C@@H](CCCc2cccnc2)NS(=O)(=O)Cc2cccc(C(=O)O)c2)cc1 [compound 52]
< 0.01	< 0.01	< 0.01	< 0.01	–	–	N=C(N)c1ccc(CNC(=O)[C@H](CCc2ccncc2)NC(=O)[C@@H](CCc2ccc(O)cc2)NS(=O)(=O)Cc2ccccc2)cc1 [compound 47]
< 0.1	< 1	< 0.01	< 0.01	–	–	N=C(N)c1ccc(CNC(=O)[C@H](CCc2ccccc2)NC(=O)[C@@H](CCCc2ccncc2)NS(=O)(=O)Cc2cccc(C(=O)O)c2)cc1 [compound 50]
< 0.01	< 1	< 0.01	< 0.01	< 0.001	–	N=C(N)c1ccc(CNC(=O)[C@H](CCc2ccccc2)NC(=O)[C@@H](CCc2ccc(O)cc2)NS(=O)(=O)Cc2ccccc2)cc1 [compound 27]
< 0.01	< 1	< 0.01	< 0.01	–	–	N=C(N)c1ccc(CNC(=O)[C@H](CCc2ccc(CN)cc2)NC(=O)[C@@H](CCc2ccc(O)cc2)NS(=O)(=O)Cc2ccccc2)cc1 [compound 26]
< 0.1	< 1	< 0.01	< 0.01	–	–	Cc1ccc(CCC[C@@H](NS(=O)(=O)Cc2ccccc2)C(=O)N[C@@H](Cc2cccc(CN)c2)C(=O)NCc2ccc(C(=N)N)cc2)cc1 [compound 9]
< 1	< 0.1	< 0.01	< 0.01	–	–	N=C(N)c1ccc(CNC(=O)[C@H](CCc2ccccc2)NC(=O)[C@@H](CCCc2ccccc2)NS(=O)(=O)Cc2ccccc2)cc1 [compound 34]
< 1	< 0.1	< 0.01	< 0.01	–	–	N=C(N)c1ccc(CNC(=O)[C@H](CCc2cc[n+]([O-])cc2)NC(=O)[C@@H](CCCc2ccccc2)NS(=O)(=O)Cc2ccccc2)cc1 [compound 41]
< 0.1	< 1	< 0.01	< 0.01	–	–	N=C(N)c1ccc(CNC(=O)[C@H](Cc2cccc(CN)c2)NC(=O)[C@@H](CCCc2ccccc2)NS(=O)(=O)Cc2ccc(C(=O)O)cc2)cc1 [compound 2]
> 1	< 1	< 0.1	< 0.01	–	–	N=C(N)c1ccc(CNC(=O)[C@H](CCc2cc[n+]([O-])cc2)NC(=O)[C@@H](CCCc2ccccc2)NS(=O)(=O)Cc2cccc(C(=O)O)c2)cc1 [compound 42]
< 1	< 1	< 0.01	< 0.01	< 0.001	–	N=C(N)c1ccc(CNC(=O)[C@H](Cc2ccc(CN)cc2)NC(=O)[C@@H](CCCc2ccccc2)NS(=O)(=O)Cc2ccc(C(=O)O)cc2)cc1 [compound 29]
< 1	> 1	< 0.01	< 0.01	–	–	N=C(N)c1ccc(CNC(=O)[C@H](Cc2ccc(CN)cc2)NC(=O)[C@@H](CCCc2ccccc2)NS(=O)(=O)Cc2cccc(C(=O)O)c2)cc1 [compound 30]
< 0.1	> 1	< 0.01	< 0.01	–	–	N=C(N)c1ccc(CNC(=O)[C@H](CCc2ccccc2)NC(=O)[C@@H](CCCc2cc[n+]([O-])cc2)NS(=O)(=O)Cc2cccc(C(=O)O)c2)cc1 [compound 54]
